What was measured:
[1] = test system: F. verticilioides (formerly F. moniliforme); assay: Conidial viability bioassay (30 min incubation, colony enumeration); assay type: cell-based, Fusarium verticilioides; parameters: key to Lowest concentration showing significant (p < 0.001) viability reduction: CAY-1 Control / Total Weight of mixture: —: No viability reduction observed; conditions: for Lowest concentration showing significant (p < 0.001) viability reduction: CAY-1 Control / Total Weight of mixture: 30 min incubation
Experimental: (§1) Bioassays were performed as described earlier (De Lucca et al. 2002, 2006b, supra). The test fungi (Aspergillus flavus, A. niger, A. fumigatus, Fusarium oxysporum, F. solani, and F. verticilioides (formerly F. moniliforme) were grown on potato dextrose agar (Difco, Detroit, Mich.) slants for seven days (30° C.). When needed, conidia were suspended in 1% potato dextrose broth (Difco, Detroit, Mich.), pH 5.2 (PDB). Using a hemocytometer, stock suspension concentrations were determined and final (working) concentrations of 3×10^4 conidia/ml were prepared. Following preparation of the conidia, a sample of nongerminated conidia was immediately used in the bioassay to determine the effect of the saponins on nongerminated conidia. An additional conidial sample for each fungus was incubated for 8 hr at 30° C. These conidia were used in bioassays to determine activity of the saponins against germinating conidia.
(§2) Individual bioassays consisted of conidia (25 μl), PDB, and the appropriate amount of a mixture of CAY-1, 1081 and 919. The CAY-1 control (CAY-1 alone) bioassays measuring the fungicidal response against the same fungi were performed in a similar manner. Final test volumes were 250 μl. Controls consisted of conidia and PDB medium.
(§3) After a 30 min incubation period (30° C.), aliquots (50 μl) of each sample were spread on each of four potato dextrose agar plates. The plates were incubated for 48 hours at 30° C., followed by colony enumeration. Three separate runs per conidial type and fungus were performed (n=12).
(§4) Statistical analyses were performed on the data using SigmaStat 3.1 (Systat, Point Richmond, Calif.). Significance (p<0.001) was determined between viability control and test saponin data.

[2] = test system: F. solani; assay: as above; assay type: cell-based, Fusarium solani; parameters: key to Lowest concentration showing significant (p < 0.001) viability reduction: CAY-1 Control / Total Weight of mixture: —: No viability reduction observed; conditions: for Lowest concentration showing significant (p < 0.001) viability reduction: CAY-1 Control / Total Weight of mixture: 30 min incubation; for Reduction of conidial viability / fungicidal activity (in words): FIG. 2F
Experimental: as §1, §2, §3, §4

[3] = test system: germinating conidia of A. flavus; assay: Time of fungicidal activity (time course study); assay type: cell-based, Aspergillus flavus; conditions: after 5 minutes of incubation; total weight 12.67 μg/ml (4:3:3: 12.64 μg/ml)
Experimental: as §1, with “Detroit, Mich.) […] for seven” for “Detroit, Mich.) slants for seven”, “germinating conidia. Individual bioassays consisted of conidia (25 μl), PDB, and the appropriate amount of a mixture of CAY-1, 1081 and 919. The CAY-1 control (CAY-1 alone) bioassays measuring the fungicidal response against the same fungi were performed in a similar manner. Final test volumes were 250 μl. […] Time of fungicidal activity for the saponin mixtures was determined by using the germinating conidia of A. flavus. […] Significance (p<0.001) was determined between viability control and test saponin data.” for “germinating conidia.”

[4] = test system: Fusarium species; assay: Conidial viability bioassays, Fusarium species; assay type: cell-based; conditions: nongerminated conidia of the tested Fusarium isolates
Experimental: as §1, §2
After a 30 min incubation period (30° C.), aliquots (50 μl) of each sample were spread on each of four potato dextrose agar plates. […]

[5] = test system: Fusarium oxysporum; assay: Conidial viability bioassay (30 min incubation, colony enumeration); assay type: cell-based; parameters: key: —: No viability reduction observed
Experimental: as §1
(§5) Individual bioassays consisted of conidia (25 μl), PDB, and the appropriate amount of a mixture of CAY-1, 1081 and 919. The CAY-1 control (CAY-1 alone) bioassays measuring the fungicidal response against the same fungi were performed in a similar manner. Final test volumes were 250 μl. […]
as §4

[6] = test system: fungi of agricultural and medical importance; conditions: pure saponin; De Lucca et al. 2002, 2006b and others; cited from earlier work
[7] = test system: A. fumigatus; assay: Conidial viability bioassay (30 min incubation, colony enumeration); assay type: cell-based, Aspergillus fumigatus; parameters: key: —: No viability reduction observed
Experimental: as §1, §5, §4

[8] = test system: A. niger; assay: as above; assay type: cell-based, Aspergillus niger; parameters: key to Lowest concentration showing significant (p < 0.001) viability reduction: CAY-1 Control / Total Weight of mixture: —: No viability reduction observed; conditions: for Lowest concentration showing significant (p < 0.001) viability reduction: CAY-1 Control / Total Weight of mixture: 30 min incubation; for Reduction of conidial viability / fungicidal activity (in words): FIG. 2C
Experimental: as §1, §2, §3, §4

[9] = test system: germinating conidia of A. flavus; conditions: within five minutes of the initiation of incubation; De Lucca et al., 2002; cited from earlier work
[10] = test system: Aspergillus flavus; assay: Conidial viability bioassay (30 min incubation, colony enumeration); assay type: cell-based; parameters: key to Lowest concentration showing significant (p < 0.001) viability reduction: CAY-1 Control / Total Weight of mixture: —: No viability reduction observed; conditions: for Lowest concentration showing significant (p < 0.001) viability reduction: CAY-1 Control / Total Weight of mixture: 30 min incubation; for Reduction of conidial viability / fungicidal activity (in words): FIG. 2A
Experimental: as §1, §2, §3, §4

[11] = test system: Aspergillus flavus, A. fumigatus and A. niger; conditions: in vitro; De Lucca et al. 2006a; cited from earlier work
[12] = germinating conidia, listed as CAY-1 controls
[13] = germinating conidia, listed as CAY-1 control

For CC1CCC2(OC1)OC1CC3C4CCC5CC(OC6OC(CO)C(OC7OC(CO)C(O)C(OC8OC(CO)C(O)C(OC9OC(CO)C(O)C(O)C9O)C8O)C7OC7OC(CO)C(O)C(O)C7O)C(O)C6O)C(O)CC5(C)C4CCC3(C)C1C2C (stereo not shown) [CAY-1], the “Lowest concentration showing significant (p < 0.001) viability reduction: CAY-1 Control / Total Weight of mixture” value ([1]; germinating conidia) was “—”, the “Reduction of conidial viability / fungicidal activity (in words)” value ([1]; germinating conidia, FIG. 2D) was “inactive” and the “Lowest concentration showing significant (p < 0.001) viability reduction: CAY-1 Control / Total Weight of mixture” value ([1]; nongerminated conidia) was “—”. The “Lowest concentration showing significant (p < 0.001) viability reduction: CAY-1 Control / Total Weight of mixture” value ([2]; germinating conidia) was 12.43 µg/mL, the “Reduction of conidial viability / fungicidal activity (in words)” value ([2]; germinating conidia) was “significantly fungicidal” and the “Reduction of conidial viability / fungicidal activity (in words)” value [2, 12] was “significant viability loss”. The “Lowest concentration showing significant (p < 0.001) viability reduction: CAY-1 Control / Total Weight of mixture” value ([2]; nongerminated conidia) was “—”, the “Activity (in words)” value [3] was “inactive” and the “Reduction of conidial viability (in words)” value [4] was “not reduced”. The “Lowest concentration showing significant (p < 0.001) viability reduction: CAY-1 Control / Total Weight of mixture” value ([5]; germinating conidia) was “—”, the “Lowest concentration showing significant (p < 0.001) viability reduction: CAY-1 Control / Total Weight of mixture” value ([5]; nongerminated conidia) was “—” and the “Antifungal properties (in words)” value [6] was “potent fungicidal properties”. The “Lowest concentration showing significant (p < 0.001) viability reduction: CAY-1 Control / Total Weight of mixture” value ([7]; germinating conidia) was “—”, the “Lowest concentration showing significant (p < 0.001) viability reduction: CAY-1 Control / Total Weight of mixture” value ([7]; nongerminated conidia) was “—” and the “Lowest concentration showing significant (p < 0.001) viability reduction: CAY-1 Control / Total Weight of mixture” value ([8]; germinating conidia) was 6.62 µg/mL. The “Reduction of conidial viability / fungicidal activity (in words)” value ([8]; germinating conidia) was “No major differences”, the “Reduction of conidial viability / fungicidal activity (in words)” value [8, 13] was “significantly (p<0.001) lower viability counts” and the “Reduction of conidial viability / fungicidal activity (in words)” value [8, 12] was “significant viability loss”. The “Lowest concentration showing significant (p < 0.001) viability reduction: CAY-1 Control / Total Weight of mixture” value ([8]; nongerminated conidia) was “—”, the “Dose producing significant lethality” value [9] was 12.4 µg/mL and the “Lowest concentration showing significant (p < 0.001) viability reduction: CAY-1 Control / Total Weight of mixture” value ([10]; germinating conidia) was 4.97 µg/mL. The “Reduction of conidial viability / fungicidal activity (in words)” value [10, 13] was “significantly (p<0.001) lower viability counts”, the “Reduction of conidial viability / fungicidal activity (in words)” value [10, 12] was “significant viability loss” and the “Lowest concentration showing significant (p < 0.001) viability reduction: CAY-1 Control / Total Weight of mixture” value ([10]; nongerminated conidia) was “—^#”. The “Interaction with Amphotericin B and intraconazole” value [11] was “additive synergy”.

From patent publication US8497249B1, “Fungicidal properties of three saponins from Capsicum frutescens” (The United States of America, as represented by the …, priority 2008, dated 2013)
